# According to patent publication US11013677B2, “Methods and compositions to reduce staining for antibacterial oral care compositions” (Colgate-Palmolive Company, priority 2019, dated 2021):
# Key:
# [1] = Bovine enamel staining model, CHX oral care compositions with metal chelator, ΔW*; details: for effect on CHX-staining (ΔW*): added to an oral care composition containing CHX
# Description: (§1) A bovine enamel model was used to mimic CHX staining. The bovine teeth samples were kept hydrated until use. Baseline (L*, a*, and b*) measurements were taken of the samples before treatment using a spectroshade. The samples were then placed in a solution representing each of the treatments of Table 2 and then in artificial saliva. This cycle of soaking in the treatment and in artificial saliva was then repeated 14 times for each sample, with spectroshade measurements taken every two cycles immediately after soaking in the artificial saliva step (the samples were dabbed dry before measurements). Control samples soaked in FeCl3 alone and FeCl3+CHX solutions were also done.
# (§2) The L*, a*, and b* values were used to calculate the change in whiteness (ΔW*) for each tooth after treatment as compared to the baseline values using Formulas (1) and (2) below. W*=((a*−0)^2+(b*−0)^2+(L*−100)^2)^1/2 Formula (1) ΔW*=W*treated−W*baseline Formula (2)
# Table 4 illustrates the effects of a metal chelator on CHX-caused staining when incorporating into an oral care composition including CHX according to implementations of the present disclosure. In particular, Table 4 illustrates the ΔW* for 5 oral care compositions containing CHX and measured similarly as described above. The more positive the value of ΔW*, the darker the tooth color is.
# Oral Care Composition #1 is a commercially available antimicrobial oral rinse with 0.12% chlorhexidine gluconate. Oral Care Compositions #2-#5 are the same as Oral Care Composition #1 except they include the specified amounts (by weight) of a metal chelator.
# [2] = Bovine enamel model of CHX staining, FeCl3/CHX/chelator solutions, change in whiteness ΔW*; details: for effect on teeth staining caused by CHX: when exposed to an iron solution (FeCl3 + CHX)
# Description: as §1, §2
# The more positive the value of ΔW*, the darker the tooth color is.
compound,measurement,setting,value
N[C@@H](CC(=O)O)C(=O)O [Aspartic acid],relative performance in reducing CHX-staining,[1]; 1 weight % added to commercial rinse (0.12% chlorhexidine gluconate),best performers
same,effect on CHX-staining (ΔW*),[1],significantly reduced the amount of CHX-staining
"O=P(O)(O)CN(CP(=O)(O)O)CP(=O)(O)O [ATMP, aminotris(methylenephosphonic acid)]","staining reduction, comparison of chelators","[2]; ATMP versus IDA, every cycle",performed better at every cycle compared to IDA
same,effect on teeth staining caused by CHX,[2],decreased the amount of teeth staining caused by CHX
"[Cl][Fe]([Cl])[Cl] [FeCl3 alone, FeCl3]",ΔW* (change in whiteness),"[2]; Cycle 0 (baseline), more positive = darker tooth",0
same,ΔW* (change in whiteness),[2]; Cycle 4 of treatment/artificial saliva soaking,1.31
same,ΔW* (change in whiteness),[2]; Cycle 6 of treatment/artificial saliva soaking,0.83
same,ΔW* (change in whiteness),[2]; Cycle 8 of treatment/artificial saliva soaking,0.90
same,ΔW* (change in whiteness),[2]; Cycle 10 of treatment/artificial saliva soaking,0.64
same,ΔW* (change in whiteness),[2]; Cycle 14 of treatment/artificial saliva soaking,0.78
N[C@@H](CCC(=O)O)C(=O)O [Glutamic acid],relative performance in reducing CHX-staining,[1]; 0.2 weight % added to commercial rinse (0.12% chlorhexidine gluconate),best performers
same,effect on CHX-staining (ΔW*),[1],significantly reduced the amount of CHX-staining
O=C(O)CC(NC(CC(=O)O)C(=O)O)C(=O)O (stereo not shown) [Imminodisuccinic acid],effect on teeth staining caused by CHX,[2],decreased the amount of teeth staining caused by CHX
